# Assays:
# morningglory = assay: Test B pre/postemergence morningglory; format: in vivo, Ipomoea hederacea
# Summary of the method: (§1)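 Herbicidal effect was estimated by eye on a ten-point control scale after plants spent twelve to sixteen days in a greenhouse following soil or foliar treatment. Foliar sprays targeted plants at one to four leaves; all doses were formulated in a non-phytotoxic solvent with surfactant.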
# giant foxtail = assay: Test B pre/postemergence giant foxtail; format: in vivo, Setaria faberii
# Summary of the method: as §1
# sugar beet = assay: Test B pre/postemergence sugar beet; format: in vivo, Beta vulgaris
# Summary of the method: as §1
# purple nutsedge = assay: Test B pre/postemergence purple nutsedge; format: in vivo, Cyperus rotundus
# Summary of the method: as §1
# crabgrass = assay: Test B pre/postemergence crabgrass; format: in vivo, Digitaria sanguinalis
# Summary of the method: as §1
# surinam grass = assay: Test B pre/postemergence surinam grass; format: in vivo, Brachiaria decumbens
# Summary of the method: as §1
# rape = assay: Test B pre/postemergence rape; format: in vivo, Brassica napus
# Summary of the method: as §1
# blackgrass = assay: Test B pre/postemergence blackgrass; format: in vivo, Alopecurus myosuroides
# Summary of the method: as §1
# corn = assay: Test B pre/postemergence corn; format: in vivo, Zea mays
# Summary of the method: as §1
# bedstraw = assay: Test B pre/postemergence bedstraw; format: in vivo, Galium aparine
# Summary of the method: as §1
# velvetleaf = assay: Test B pre/postemergence velvetleaf; format: in vivo, Abutilon theophrasti
# Summary of the method: as §1
# wild oat = assay: Test B pre/postemergence wild oat; format: in vivo, Avena fatua
# Summary of the method: as §1
# soybean = assay: Test B pre/postemergence soybean; format: in vivo, Glycine max
# Summary of the method: as §1
# pigweed = assay: Test B pre/postemergence pigweed; format: in vivo, Amaranthus retroflexus
# Summary of the method: as §1
# cocklebur = assay: Test B pre/postemergence cocklebur; format: in vivo, Xanthium strumarium
# Summary of the method: as §1
# wheat = assay: Test B pre/postemergence wheat; format: in vivo, Triticum aestivum
# Summary of the method: as §1
# [1] = Postemergence, Rate 62 g/ha, scale 0 to 10, 0 is no effect, 10 is complete control
# [2] = Postemergence, Rate 125 g/ha, scale of 0 to 10 where 0 is no effect and 10 is complete control
# [3] = Preemergence, Rate 125 g/ha, scale of 0 to 10 where 0 is no effect and 10 is complete control
# [4] = Preemergence, Rate 250 g/ha, scale 0 (no effect) to 10 (complete control)
# [5] = Rate 62 g/ha, Preemergence, scale 0 to 10
# [6] = Rate 250 g/ha, Postemergence, scale 0 to 10, 0 is no effect, 10 is complete control
# [7] = Rate 500 g/ha, Postemergence, scale 0 to 10, 0 is no effect, 10 is complete control
# [8] = Rate 500 g/ha, Preemergence, scale 0 to 10 (0 no effect, 10 complete control)
compound,measurement,setting,value
CC(C)N(C(=O)n1oc(=O)n(C[C@H](C)Cl)c1=O)c1ccccc1 [Compound 747],"Plant response rating, Morningglory",morningglory; [1],2
same,Morningglory plant response rating,morningglory; [2],9
same,"Plant response rating, Morningglory",morningglory; [3],0
same,Morningglory plant response rating,morningglory; [4],0
same,Morningglory plant response rating,morningglory; [5],0
same,Morningglory plant response rating,morningglory; [6],10
same,Morningglory plant response rating,morningglory; [7],10
same,Morningglory plant response rating,morningglory; [8],7
same,"Plant response rating, Giant foxtail",giant foxtail; [1],8
same,Giant foxtail plant response rating,giant foxtail; [2],9
same,"Plant response rating, Giant foxtail",giant foxtail; [3],10
same,Giant foxtail plant response rating,giant foxtail; [4],10
same,Giant foxtail plant response rating,giant foxtail; [5],10
same,Giant foxtail plant response rating,giant foxtail; [6],9
same,Giant foxtail plant response rating,giant foxtail; [7],9
same,Giant foxtail plant response rating,giant foxtail; [8],10
same,"Plant response rating, Sugarbeets",sugar beet; [1],0
same,Sugarbeets plant response rating,sugar beet; [2],0
same,"Plant response rating, Sugarbeets",sugar beet; [3],6
same,Sugarbeets plant response rating,sugar beet; [4],7
same,Sugarbeets plant response rating,sugar beet; [5],4
same,Sugarbeets plant response rating,sugar beet; [6],0
same,Sugarbeets plant response rating,sugar beet; [7],3
same,"Plant response rating, Nutsedge",purple nutsedge; [1],0
same,Nutsedge plant response rating,purple nutsedge; [2],0
same,"Plant response rating, Nutsedge",purple nutsedge; [3],2
same,Nutsedge plant response rating,purple nutsedge; [4],4
same,Nutsedge plant response rating,purple nutsedge; [5],0
same,Nutsedge plant response rating,purple nutsedge; [6],0
same,Nutsedge plant response rating,purple nutsedge; [7],0
same,Nutsedge plant response rating,purple nutsedge; [8],2
same,"Plant response rating, Crabgrass",crabgrass; [1],3
same,Crabgrass plant response rating,crabgrass; [2],9
same,"Plant response rating, Crabgrass",crabgrass; [3],10
same,Crabgrass plant response rating,crabgrass; [4],10
same,Crabgrass plant response rating,crabgrass; [5],10
same,Crabgrass plant response rating,crabgrass; [6],9
same,Crabgrass plant response rating,crabgrass; [7],9
same,Crabgrass plant response rating,crabgrass; [8],10
same,"Plant response rating, B. signalgrass",surinam grass; [1],1
same,B. signalgrass plant response rating,surinam grass; [2],3
same,B. signalgrass plant response rating,"surinam grass; Preemergence, Rate 62 g/ha, scale of 0 to 10 where 0 is no effect and 10 is complete control",7
same,"Plant response rating, B. signalgrass",surinam grass; [3],8
same,B. signalgrass plant response rating,surinam grass; [6],4
same,B. signalgrass plant response rating,surinam grass; [7],6
same,B. signalgrass plant response rating,surinam grass; [8],9
same,"Plant response rating, Rape",rape; [1],4
same,Rape plant response rating,rape; [2],4
same,"Plant response rating, Rape",rape; [3],9
same,Rape plant response rating,rape; [4],10
same,Rape plant response rating,rape; [5],7
same,Rape plant response rating,rape; [6],4
same,Rape plant response rating,rape; [7],9
same,"Plant response rating, Blackgrass",blackgrass; [1],5
same,Blackgrass plant response rating,blackgrass; [2],7
same,"Plant response rating, Blackgrass",blackgrass; [3],8
same,Blackgrass plant response rating,blackgrass; [5],8
same,Blackgrass plant response rating,blackgrass; [6],8
same,Blackgrass plant response rating,blackgrass; [7],8
same,Blackgrass plant response rating,blackgrass; [8],8
same,"Plant response rating, Corn",corn; [1],0
same,Corn plant response rating,corn; [2],0
same,"Plant response rating, Corn",corn; [3],2
same,Corn plant response rating,corn; [4],6
same,Corn plant response rating,corn; [5],2
same,Corn plant response rating,corn; [6],4
same,Corn plant response rating,corn; [7],5
same,Corn plant response rating,corn; [8],9
same,"Plant response rating, Bedstraw",bedstraw; [1],8
same,Bedstraw plant response rating,bedstraw; [2],8
same,"Plant response rating, Bedstraw",bedstraw; [3],0
same,Bedstraw plant response rating,bedstraw; [5],0
same,Bedstraw plant response rating,bedstraw; [8],0
same,"Plant response rating, Velvetleaf",velvetleaf; [1],0
same,Velvetleaf plant response rating,velvetleaf; [2],4
same,"Plant response rating, Velvetleaf",velvetleaf; [3],6
same,Velvetleaf plant response rating,velvetleaf; [4],7
same,Velvetleaf plant response rating,velvetleaf; [5],4
same,Velvetleaf plant response rating,velvetleaf; [6],4
same,Velvetleaf plant response rating,velvetleaf; [7],7
same,Velvetleaf plant response rating,velvetleaf; [8],7
same,"Plant response rating, Wild oats",wild oat; [1],0
same,Wild oats plant response rating,wild oat; [2],0
same,Wild oats plant response rating,wild oat; [4],3
same,Wild oats plant response rating,wild oat; [5],3
same,Wild oats plant response rating,wild oat; [6],2
same,Wild oats plant response rating,wild oat; [7],2
same,"Plant response rating, Soybean",soybean; [1],4
same,Soybean plant response rating,soybean; [2],4
same,"Plant response rating, Soybean",soybean; [3],0
same,Soybean plant response rating,soybean; [4],0
same,Soybean plant response rating,soybean; [5],0
same,Soybean plant response rating,soybean; [6],7
same,Soybean plant response rating,soybean; [7],8
same,Soybean plant response rating,soybean; [8],9
same,"Plant response rating, Redroot pigweed",pigweed; [1],4
same,Redroot pigweed plant response rating,pigweed; [2],4
same,Redroot pigweed plant response rating,pigweed; [4],8
same,Redroot pigweed plant response rating,pigweed; [5],8
same,Redroot pigweed plant response rating,pigweed; [6],7
same,Redroot pigweed plant response rating,pigweed; [7],8
same,"Plant response rating, Cocklebur",cocklebur; [1],0
same,Cocklebur plant response rating,cocklebur; [2],0
same,Cocklebur plant response rating,cocklebur; [4],0
same,Cocklebur plant response rating,cocklebur; [5],0
same,Cocklebur plant response rating,cocklebur; [6],2
same,Cocklebur plant response rating,cocklebur; [7],4
same,Cocklebur plant response rating,cocklebur; [8],0
same,"Plant response rating, Wheat",wheat; [1],0
same,Wheat plant response rating,wheat; [2],0
same,Wheat plant response rating,wheat; [4],0
same,Wheat plant response rating,wheat; [5],0
same,Wheat plant response rating,wheat; [6],4
same,Wheat plant response rating,wheat; [7],4

# Source: US6737383B1, “Herbicidal oxadiazolidines” (priority 1999, dated 2004)
